From patent US9765074B2, “Inhibitors of the renal outer medullary potassium channel” (Merck Sharp & Dohme Corp., priority 2013, dated 2017)

These compounds were tested against T1, hROMK (hKir1.1) (Homo sapiens, UniProt P48048) (assay: Thallium Flux Assay (ROMK channel functional thallium flux, FLIPR-Tetra)). Conditions: HEK293 cells stably expressing hROMK (hKir1.1); 30 min compound incubation.
T1 construct: expressed in transfected cells
T1 sequence (P48048 1-391): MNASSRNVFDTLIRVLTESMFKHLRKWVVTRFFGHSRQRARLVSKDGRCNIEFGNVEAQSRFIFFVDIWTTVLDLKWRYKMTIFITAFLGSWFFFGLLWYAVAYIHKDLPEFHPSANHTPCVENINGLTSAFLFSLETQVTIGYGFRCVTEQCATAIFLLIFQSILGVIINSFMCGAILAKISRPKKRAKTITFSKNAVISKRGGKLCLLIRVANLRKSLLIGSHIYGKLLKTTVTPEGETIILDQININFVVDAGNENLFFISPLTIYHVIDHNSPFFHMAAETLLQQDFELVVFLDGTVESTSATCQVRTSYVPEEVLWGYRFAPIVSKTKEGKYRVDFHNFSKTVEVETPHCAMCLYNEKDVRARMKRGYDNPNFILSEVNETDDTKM
Assay type: cell-based
Method in brief: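 Thallium flux read by FluxOR fluorescence ([…]) for ~10 min after adding 3 mM Tl+/0.3 mM K+ final. Stable HEK-hKir1.1 cells were dye-loaded 90 min, exposed to compound 30 min at room temperature in ouabain/probenecid buffer; IC50 relative to a 3 μM control inhibitor.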

Point of comparison: `CC1=C(N2CCC3(CCN(C[C@H](O)c4cnc(-n5cnnn5)nc4)CC3)C2=O)COC1=O` [Example 17, 8-{(2R)-2-hydroxy-2-[2-(1H-tetrazol-1-yl)pyrimidin-5-yl]ethyl}-2-(4-methyl-5-oxo-2,5-dihydrofuran-3-yl)-1-oxo-2-aza-8-azoniaspiro[4.5]decane], IC50 30 nM. Against it:
- CC1=C(N2CCC3(CCN([C@@H](C)Cc4ccc(-n5cnnn5)nn4)CC3)C2=O)COC1=O (single isomer, unassigned) [Example 293] — 3-fold lower, 10 nM
- CC1=C(N2CCC3(CCN([C@H](C)Cc4ccc(-n5cnnn5)nn4)CC3)C2=O)COC1=O (single isomer, unassigned) [Example 294] — 7.5-fold lower, 4 nM
- CC1=C(N2CCC3(CCN(C(CO)Cc4ccc(-n5cnnn5)nc4)CC3)C2=O)COC1=O (single isomer, unassigned) [Example 295] — 1.5-fold lower, 20 nM
- CC1=C(N2CCC3(CCN([C@H](CO)Cc4ccc(-n5cnnn5)nc4)CC3)C2=O)COC1=O (single isomer, unassigned) [Example 296] — 1.5-fold lower, 20 nM
- CC1=C(N2CCC3(CCN(C(C)(C)C(O)c4ccc(-n5cnnn5)nc4)CC3)C2=O)COC1=O (single isomer, unassigned) [Example 297] — 3-fold lower, 10 nM
- CC1=C(N2CCC3(CCN(C(C)(C)C(O)c4ccc(-n5cnnn5)nc4)CC3)C2=O)COC1=O (single isomer, unassigned) [Example 298] — 3-fold lower, 10 nM
- CC1=C(N2CCC3(CCN(C(C)(C)C(O)c4ccc(-n5cnnn5)cn4)CC3)C2=O)COC1=O (single isomer, unassigned) [Example 299] — 3-fold lower, 10 nM
- CC1=C(N2CCC3(CCN(C(C)(C)C(O)c4ccc(-n5cnnn5)cn4)CC3)C2=O)COC1=O (single isomer, unassigned) [Example 300] — 1.5-fold lower, 20 nM
- CC1CC2(CCN(C(C)(C)C(O)c3cnc(-n4cnnn4)cn3)CC2)C(=O)N1C1=CC(=O)OC1 (single isomer, unassigned) [Example 301, 8-(1-(5-(1H-tetrazol-1-yl)pyrazin-2-yl)-1-hydroxy-2-methylpropan-2-yl)-3-methyl-2-(5-oxo-2,5-dihydrofuran-3-yl)-2,8-diazaspiro[4.5]decan-1-one] — 3-fold lower, 10 nM
- CC1CC2(CCN(C(C)(C)C(O)c3cnc(-n4cnnn4)cn3)CC2)C(=O)N1C1=CC(=O)OC1 (single isomer, unassigned) [Example 302, 8-(1-(5-(1H-tetrazol-1-yl)pyrazin-2-yl)-1-hydroxy-2-methylpropan-2-yl)-3-methyl-2-(5-oxo-2,5-dihydrofuran-3-yl)-2,8-diazaspiro[4.5]decan-1-one] — 3.3-fold higher, 100 nM
- CC1CC2(CCN(C(C)(C)C(O)c3cnc(-n4cnnn4)cn3)CC2)C(=O)N1C1=CC(=O)OC1 (single isomer, unassigned) [Example 303, 8-(1-(5-(1H-tetrazol-1-yl)pyrazin-2-yl)-1-hydroxy-2-methylpropan-2-yl)-3-methyl-2-(5-oxo-2,5-dihydrofuran-3-yl)-2,8-diazaspiro[4.5]decan-1-one] — 67-fold higher, 2000 nM
- CC1CC2(CCN(C(C)(C)C(O)c3cnc(-n4cnnn4)cn3)CC2)C(=O)N1C1=CC(=O)OC1 (single isomer, unassigned) [Example 304, 8-(1-(5-(1H-tetrazol-1-yl)pyrazin-2-yl)-1-hydroxy-2-methylpropan-2-yl)-3-methyl-2-(5-oxo-2,5-dihydrofuran-3-yl)-2,8-diazaspiro[4.5]decan-1-one] — 30-fold higher, 910 nM
- CC1=C(N2CCC3(CCN(C[C@H](O)c4cnc(-n5cnnn5)cc4C(F)F)CC3)C2=O)COC1=O (stereo in doubt) [Example 147, 8-{2-[4-(difluoromethyl)-6-(1H-tetrazol-1-yl)pyridin-3-yl]-2-hydroxyethyl}-2-(4-methyl-5-oxo-2,5-dihydrofuran-3-yl)-2,8-diazaspiro[4.5]decan-1-one] — within 1.5-fold, 40 nM
- O=C1C=C(N2CCC3(CCN(C[C@H](O)c4ccc(-n5cnnn5)nc4)CC3)C2=O)CO1 [Example 1, 8-{(2R)-2-Hydroxy-2-[6-(1H-tetrazol-1-yl)pyridin-3-yl]ethyl}-1-oxo-2-(5-oxo-2,5-dihydrofuran-3-yl)-2-aza-8-azoniaspiro[4.5]decane] — 3-fold lower, 10 nM
- Cc1nc(-n2cnnn2)ccc1[C@@H](O)CN1CCC2(CC1)CCN(C1=CC(=O)OC1)C2=O [Example 3, 8-{(2R)-2-hydroxy-2-[2-methyl-6-(1H-tetrazol-1-yl)pyridin-3-yl]ethyl}-1-oxo-2-(5-oxo-2,5-dihydrofuran-3-yl)-2-aza-8-azoniaspiro[4.5]decane] — 1.5-fold lower, 20 nM
- Cc1nc(-n2cnnn2)ccc1[C@H](O)CN1CCC2(CC1)CCN(C1=CC(=O)OC1)C2=O [Example 4, 8-{(2S)-2-hydroxy-2-[2-methyl-6-(1H-tetrazol-1-yl)pyridin-3-yl]ethyl}-1-oxo-2-(5-oxo-2,5-dihydrofuran-3-yl)-2-aza-8-azoniaspiro[4.5]decane] — 1.7-fold higher, 50 nM
- Cc1nc([C@@H](O)CN2CCC3(CC2)CCN(C2=CC(=O)OC2)C3=O)ccc1-n1cnnn1 [Example 5, 8-{(2S)-2-hydroxy-2-[6-methyl-5-(1H-tetrazol-1-yl)pyridin-2-yl]ethyl}-1-oxo-2-(5-oxo-2,5-dihydrofuran-3-yl)-2-aza-8-azoniaspiro[4.5]decane] — within 1.5-fold, 40 nM
- Cc1cc([C@H](O)CN2CCC3(CC2)CCN(C2=CC(=O)OC2)C3=O)ncc1-n1cnnn1 [Example 6, 8-{(2R)-2-hydroxy-2-[4-methyl-5-(1H-tetrazol-1-yl)pyridin-2-yl]ethyl}-1-oxo-2-(5-oxo-2,5-dihydrofuran-3-yl)-2-aza-8-azoniaspiro[4.5]decane] — 1.7-fold higher, 50 nM
- Cc1cc([C@@H](O)CN2CCC3(CC2)CCN(C2=CC(=O)OC2)C3=O)ncc1-n1cnnn1 [Example 7, 8-{(2S)-2-hydroxy-2-[4-methyl-5-(1H-tetrazol-1-yl)pyridin-2-yl]ethyl}-1-oxo-2-(5-oxo-2,5-dihydrofuran-3-yl)-2-aza-8-azoniaspiro[4.5]decane] — 2.7-fold higher, 80 nM
- Cc1nc([C@H](O)CN2CCC3(CC2)CCN(C2=CC(=O)OC2)C3=O)ccc1-n1cnnn1 [Example 8, 8-{(2R)-2-hydroxy-2-[6-methyl-5-(1H-tetrazol-1-yl)pyridin-2-yl]ethyl}-1-oxo-2-(5-oxo-2,5-dihydrofuran-3-yl)-2-aza-8-azoniaspiro[4.5]decane] — 2-fold higher, 60 nM
- O=C1C=C(N2CCC3(CCN(C[C@H](O)c4cnc(-n5cnnn5)nc4)CC3)C2=O)CO1 [Example 9, 8-{(2R)-2-hydroxy-2-[2-(1H-tetrazol-1-yl)pyrimidin-5-yl]ethyl}-1-oxo-2-(5-oxo-2,5-dihydrofuran-3-yl)-2-aza-8-azoniaspiro[4.5]decane] — 2.7-fold higher, 80 nM
- Cc1cc(-n2cnnn2)ccc1[C@@H](O)CN1CCC2(CC1)CCN(C1=CC(=O)OC1)C2=O [Example 11, 8-{(2R)-2-hydroxy-2-[2-methyl-4-(1H-tetrazol-1-yl)phenyl]ethyl}-1-oxo-2-(5-oxo-2,5-dihydrofuran-3-yl)-2-aza-8-azoniaspiro[4.5]decane] — 1.5-fold lower, 20 nM
- Cc1cc(-n2cnnn2)ccc1[C@H](O)CN1CCC2(CC1)CCN(C1=CC(=O)OC1)C2=O [Example 12, 8-{(2S)-2-hydroxy-2-[2-methyl-4-(1H-tetrazol-1-yl)phenyl]ethyl}-1-oxo-2-(5-oxo-2,5-dihydrofuran-3-yl)-2-aza-8-azoniaspiro[4.5]decane] — 3-fold lower, 10 nM
- O=C1C=C(N2CCC3(CCN(C[C@H](O)c4ccc(-n5cnnn5)cc4F)CC3)C2=O)CO1 [Example 13, 8-{(2R)-2-[2-fluoro-4-(1H-tetrazol-1-yl)phenyl]-2-hydroxyethyl}-1-oxo-2-(5-oxo-2,5-dihydrofuran-3-yl)-2-aza-8-azoniaspiro[4.5]decane] — 1.5-fold lower, 20 nM
- O=C1C=C(N2CCC3(CCN(C[C@@H](O)c4ccc(-n5cnnn5)cc4F)CC3)C2=O)CO1 [Example 14, 8-{(2S)-2-[2-fluoro-4-(1H-tetrazol-1-yl)phenyl]-2-hydroxyethyl}-1-oxo-2-(5-oxo-2,5-dihydrofuran-3-yl)-2-aza-8-azoniaspiro[4.5]decane] — 1.5-fold lower, 20 nM
- COc1cc(-n2cnnn2)ccc1[C@@H](O)CN1CCC2(CC1)CCN(C1=CC(=O)OC1)C2=O [Example 15, 8-{(2R)-2-hydroxy-2-[2-methoxy-4-(1H-tetrazol-1-yl)phenyl]ethyl}-1-oxo-2-(5-oxo-2,5-dihydrofuran-3-yl)-2-aza-8-azoniaspiro[4.5]decane] — 3-fold lower, 10 nM
- COc1cc(-n2cnnn2)ccc1[C@H](O)CN1CCC2(CC1)CCN(C1=CC(=O)OC1)C2=O [Example 16, 8-{(2S)-2-hydroxy-2-[2-methoxy-4-(1H-tetrazol-1-yl)phenyl]ethyl}-1-oxo-2-(5-oxo-2,5-dihydrofuran-3-yl)-2-aza-8-azoniaspiro[4.5]decane] — 1.5-fold lower, 20 nM
- CC1=C(N2CCC3(CCN(C[C@H](O)c4ccc(-n5cnnn5)nc4)CC3)C2=O)COC1=O [Example 18, 8-{(2R)-2-hydroxy-2-[6-(1H-tetrazol-1-yl)pyridin-3-yl]ethyl}-2-(4-methyl-5-oxo-2,5-dihydrofuran-3-yl)-1-oxo-2-aza-8-azoniaspiro[4.5]decane] — 3-fold lower, 10 nM
- CC1=C(N2CCC3(CCN(C[C@@H](O)c4ccc(-n5cnnn5)nc4)CC3)C2=O)COC1=O [Example 19, 8-{(2S)-2-hydroxy-2-[6-(1H-tetrazol-1-yl)pyridin-3-yl]ethyl}-2-(4-methyl-5-oxo-2,5-dihydrofuran-3-yl)-1-oxo-2-aza-8-azoniaspiro[4.5]decane] — the same, 30 nM
